We go through 13 compounds from paper PMC8397297 (ACS Chemical Neuroscience, 2021).

The target of one experiment is T1, mGAT3 (Mus musculus, UniProt P31649).
T1 construct: expressed in transfected cells; host or cells: HEK-293
T1 sequence (P31649 1-602): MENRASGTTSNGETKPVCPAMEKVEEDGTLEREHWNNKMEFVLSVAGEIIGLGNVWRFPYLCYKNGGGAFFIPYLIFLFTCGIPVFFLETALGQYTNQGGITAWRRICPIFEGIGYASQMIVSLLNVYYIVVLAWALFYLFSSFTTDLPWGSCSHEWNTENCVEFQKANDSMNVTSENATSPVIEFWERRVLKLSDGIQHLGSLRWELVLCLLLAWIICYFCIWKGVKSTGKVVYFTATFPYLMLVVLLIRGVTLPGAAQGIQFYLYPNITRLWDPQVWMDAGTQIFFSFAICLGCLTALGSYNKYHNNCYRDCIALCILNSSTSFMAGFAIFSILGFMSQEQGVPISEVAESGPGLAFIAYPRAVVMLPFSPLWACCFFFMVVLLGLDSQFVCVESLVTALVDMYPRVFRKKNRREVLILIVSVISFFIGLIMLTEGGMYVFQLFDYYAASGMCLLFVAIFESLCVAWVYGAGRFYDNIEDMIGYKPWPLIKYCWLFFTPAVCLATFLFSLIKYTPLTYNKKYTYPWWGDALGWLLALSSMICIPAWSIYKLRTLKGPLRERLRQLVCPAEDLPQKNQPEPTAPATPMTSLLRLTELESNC
The experiment in a line: [3H]GABA uptake assay in HEK-293 cells stably expressing mGAT3. Format: cell-based. The conditions noted are these: [3H]GABA uptake; read-out: pIC50 ± SEM mGAT3 (converted).

In another experiment the target is T2, mGAT2 (Mus musculus, UniProt P31651).
T2 construct: expressed in transfected cells; host or cells: HEK-293
T2 sequence (P31651 1-614): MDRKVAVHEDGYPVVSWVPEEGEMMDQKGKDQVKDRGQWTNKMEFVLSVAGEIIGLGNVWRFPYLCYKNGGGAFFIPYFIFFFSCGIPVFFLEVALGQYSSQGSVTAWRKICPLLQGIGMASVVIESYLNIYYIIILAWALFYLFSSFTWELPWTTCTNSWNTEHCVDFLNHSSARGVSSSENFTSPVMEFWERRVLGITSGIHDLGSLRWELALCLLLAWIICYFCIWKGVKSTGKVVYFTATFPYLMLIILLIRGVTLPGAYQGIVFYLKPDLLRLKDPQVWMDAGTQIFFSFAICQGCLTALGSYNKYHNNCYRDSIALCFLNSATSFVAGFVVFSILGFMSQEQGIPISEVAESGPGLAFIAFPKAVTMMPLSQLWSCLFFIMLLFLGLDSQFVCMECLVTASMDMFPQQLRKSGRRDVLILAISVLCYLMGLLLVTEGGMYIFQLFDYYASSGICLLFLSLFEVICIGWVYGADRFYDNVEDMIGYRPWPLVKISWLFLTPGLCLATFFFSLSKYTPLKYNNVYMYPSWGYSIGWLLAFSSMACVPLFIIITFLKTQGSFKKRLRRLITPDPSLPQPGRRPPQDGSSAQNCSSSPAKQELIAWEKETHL
Nature of the experiment: [3H]GABA uptake assay in HEK-293 cells stably expressing mGAT2. Format: cell-based. The following applies: for IC50: [3H]GABA uptake, read-out: pIC50 ± SEM mGAT2 (converted); for remaining [3H]GABA uptake mGAT2: in the presence of 100 μM inhibitor.

For experiment [1], the target named is T3, mGAT1 (Mus musculus, UniProt P31648).
T3 construct: expressed in transfected cells; host or cells: HEK-293
The experiment in a line: [3H]GABA uptake assay in HEK-293 cells stably expressing mGAT1. Format: cell-based. The conditions noted are these: for IC50: [3H]GABA uptake, read-out: pIC50 ± SEM mGAT1 (converted); for remaining [3H]GABA uptake mGAT1: in the presence of 100 μM inhibitor.

For the next experiment, the target named is T4, mGAT4 (Mus musculus, UniProt P31650).
T4 construct: expressed in transfected cells; host or cells: HEK-293
T4 sequence (P31650 1-627): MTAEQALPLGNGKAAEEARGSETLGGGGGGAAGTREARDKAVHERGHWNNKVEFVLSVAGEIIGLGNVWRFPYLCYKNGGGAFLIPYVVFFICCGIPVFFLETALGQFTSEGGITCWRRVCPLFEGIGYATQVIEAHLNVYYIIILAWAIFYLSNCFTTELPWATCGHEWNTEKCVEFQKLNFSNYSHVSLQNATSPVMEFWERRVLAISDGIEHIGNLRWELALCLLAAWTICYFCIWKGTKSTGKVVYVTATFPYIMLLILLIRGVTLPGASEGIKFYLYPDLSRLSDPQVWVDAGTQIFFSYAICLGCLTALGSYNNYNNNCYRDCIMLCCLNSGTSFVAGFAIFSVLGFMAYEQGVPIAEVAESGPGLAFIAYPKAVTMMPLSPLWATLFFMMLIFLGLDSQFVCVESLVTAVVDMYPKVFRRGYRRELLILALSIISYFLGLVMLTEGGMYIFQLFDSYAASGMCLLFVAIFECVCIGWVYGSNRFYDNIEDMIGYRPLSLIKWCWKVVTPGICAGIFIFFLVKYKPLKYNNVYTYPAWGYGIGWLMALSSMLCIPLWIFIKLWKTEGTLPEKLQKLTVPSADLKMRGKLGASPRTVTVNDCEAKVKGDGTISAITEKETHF
Nature of the experiment: [3H]GABA uptake assay in HEK-293 cells stably expressing mGAT4. The conditions noted are these: for IC50: [3H]GABA uptake, read-out: pIC50 ± SEM mGAT4 (converted). It is filed as cell-based.

In experiment [2] the target is T3, mGAT1. Nature of the experiment: competitive MS binding assay with NO711 as unlabeled marker (LC-ESI-MS/MS). The following applies: in the presence of 100 μM inhibitor. The method, then: Specific binding affinity toward mGAT1 was determined via a competitive mass spectrometry (MS) binding assay quantified by liquid chromatography–electrospray ionization tandem mass spectrometry (LC–ESI-MS/MS) with NO711 as an unlabeled marker.[50]
MS binding assays for mGAT1 were performed as described earlier.[50] Inhibition of mGAT1 binding by the synthesized compounds was determined in MS binding assays at a screening concentration of 100 μM and analyzed by LC–ESI-MS/MS.

The structures appear in SMILES notation.

Turning to `Cc1ccsc1C(=C1CCN([C@H](C[C@@H](C)O)C(=O)NCc2ccccc2)CC1)c1sccc1C` (relative stereo) [2RS,4RS-37a, N-Benzyl-2-{4-[bis(3-methylthiophen-2-yl)methylidene]piperidin-1-yl}-4-hydroxypentanamide], the IC50 was 41.7 µM at mGAT3, 24.5 µM at mGAT2, 26.3 µM at mGAT1 [1] and 72.4 µM at mGAT4. Besides, on mGAT1 [2], the “remaining NO711 binding mGAT1” value is recorded as 100 μM: 74%.

Take `Cc1ccsc1C(=C1CCN([C@H](C[C@@H](C)O)C(=O)NCc2ccc(F)cc2)CC1)c1sccc1C` (relative stereo) [2RS,4RS-37c, 2-{4-[Bis(3-methylthiophen-2-yl)methylidene]piperidin-1-yl}-N-[(4-fluorophenyl)methyl]-4-hydroxypentanamide]: the IC50 is 11.5 µM on mGAT3, 15.8 µM at mGAT2, 17.8 µM at mGAT1 [1] and 19.5 µM on mGAT4. Besides, at mGAT1 [2], the “remaining NO711 binding mGAT1” value is recorded as 100 μM: 76%.

As for `C[C@@H](O)C[C@H](C(=O)NCc1ccc(Cl)cc1)N(C)CCC=C1c2ccccc2CCc2ccccc21` (relative stereo) [2RS,4RS-39b, N-(4-Chlorobenzyl)-2-((3-(10,11-dihydro-5H-dibenzo[a,d][7]annulen-5-ylidene)propyl)(methyl)amino)-4-hydroxypentanamide], the IC50 on mGAT3 is 24 µM; on mGAT4 it was 9.12 µM. The “remaining [3H]GABA uptake mGAT2” value at mGAT2 is 100 μM: 73%. For the same compound, the “remaining [3H]GABA uptake mGAT1” value at mGAT1 [1] is 100 μM: 56%. The “remaining NO711 binding mGAT1” value on mGAT1 [2] is given as 100 μM: 84%.

`Cc1ccsc1C(=C1CCN([C@H](C[C@H](C)O)C(=O)NCc2ccccc2)CC1)c1sccc1C` (relative stereo) [2RS,4SR-37a, N-Benzyl-2-{4-[bis(3-methylthiophen-2-yl)methylidene]piperidin-1-yl}-4-hydroxypentanamide]: the IC50 on mGAT3 is 61.7 µM; at mGAT1 [1], 29.5 µM; at mGAT4, 27.5 µM. In addition, on mGAT2, the “remaining [3H]GABA uptake mGAT2” value is listed as 100 μM: 60%. Also, the “remaining NO711 binding mGAT1” value on mGAT1 [2] is recorded as 100 μM: 78%.

Take `C[C@H](O)C[C@H](C(=O)NCc1ccc(Cl)cc1)N(C)CCC=C1c2ccccc2CCc2ccccc21` (relative stereo) [2RS,4SR-39b, N-(4-Chlorobenzyl)-2-((3-(10,11-dihydro-5H-dibenzo[a,d][7]annulen-5-ylidene)propyl)(methyl)amino)-4-hydroxypentanamide]: the IC50 on mGAT3 is 10.2 µM; on mGAT4 it was 9.12 µM. On mGAT2, the “remaining [3H]GABA uptake mGAT2” value is on record as 100 μM: 73%. For the same compound, at mGAT1 [1], the “remaining [3H]GABA uptake mGAT1” value was 100 μM: 51%. Besides, the “remaining NO711 binding mGAT1” value at mGAT1 [2] is reported as 100 μM: 87%.

`Cc1ccc(CNC(=O)[C@@H](C[C@H](C)O)N(C)CCC=C2c3ccccc3CCc3ccccc32)cc1` (relative stereo) [2RS,4SR-39c, 2-((3-(10,11-Dihydro-5H-dibenzo[a,d][7]annulen-5-ylidene)propyl)(methyl)amino)-4-hydroxy-N-(4-methylbenzyl)pentanamide]: the IC50 on mGAT3 was 7.94 µM; at mGAT2, 8.13 µM; on mGAT4, 6.92 µM. Moreover, the “remaining [3H]GABA uptake mGAT1” value on mGAT1 [1] is 100 μM: 51%. Further, the “remaining NO711 binding mGAT1” value at mGAT1 [2] was 100 μM: 73%.

Consider `Cc1ccsc1C(=C1CCN(C(CC(C)O)C(=O)NCc2ccccc2Cl)CC1)c1sccc1C` (stereo not shown) [2RS,4RS-37b, 2-{4-[Bis(3-methylthiophen-2-yl)methylidene]piperidin-1-yl}-N-[(2-chlorophenyl)methyl]-4-hydroxypentanamide], for which the IC50 on mGAT3 is 93.3 µM; at mGAT4, 61.7 µM. Moreover, the “remaining [3H]GABA uptake mGAT2” value at mGAT2 is 100 μM: 58%. Moreover, the “remaining [3H]GABA uptake mGAT1” value on mGAT1 [1] is 100 μM: 52%. In addition, the “remaining NO711 binding mGAT1” value at mGAT1 [2] was 100 μM: 94%.

`CC(O)CC(C(=O)NCc1ccc(F)cc1)N(C)CCC=C1c2ccccc2CCc2ccccc21` (stereo not shown) [2RS,4RS-39a, 2-((3-(10,11-Dihydro-5H-dibenzo[a,d][7]annulen-5-ylidene)propyl)(methyl)amino)-N-(4-fluorobenzyl)-4-hydroxypentanamide]: the results for the IC50 at mGAT3, on mGAT2 and on mGAT4 were 14.8 µM, 12.6 µM and 25.1 µM, respectively. On mGAT1 [1], the “remaining [3H]GABA uptake mGAT1” value was 100 μM: 51%. For the same compound, the “remaining NO711 binding mGAT1” value at mGAT1 [2] is 100 μM: 110%.

Regarding `CC(O)CC(C(=O)NCc1ccccc1)N1CCC(=C2c3ccccc3-c3ccccc32)CC1` (stereo not shown) [2RS,4RS-41a, N-Benzyl-2-[4-(9H-fluoren-9-ylidene)piperidin-1-yl]-4-hydroxypentanamide], the IC50 at mGAT3 is 64.6 µM; at mGAT2 it was 74.1 µM. The “remaining [3H]GABA uptake mGAT1” value at mGAT1 [1] was 100 μM: 49%. In addition, the “remaining [3H]GABA uptake mGAT4” value at mGAT4 (in the presence of 100 μM inhibitor) came to 52%. In addition, on mGAT1 [2], the “remaining NO711 binding mGAT1” value is 100 μM: 92%.

Consider `CC(O)CC(C(=O)NCc1ccccc1)N1CCC(=C2c3ccccc3CCc3ccccc32)CC1` (stereo not shown) [2RS,4RS-43a, N-Benzyl-2-(4-(10,11-dihydro-5H-dibenzo[a,d][7]annulen-5-ylidene)piperidin-1-yl)-4-hydroxypentanamide], for which the IC50 at mGAT3 was 21.4 µM; at mGAT2 it was 56.2 µM; on mGAT1 [1] it was 17 µM; on mGAT4, 26.3 µM. In addition, on mGAT1 [2], the “remaining NO711 binding mGAT1” value is given as 100 μM: 77%.

For the compound `CC(O)CC(C(=O)NCc1ccc(F)cc1)N1CCC(=C2c3ccccc3CCc3ccccc32)CC1` (stereo not shown) [2RS,4RS-43b, 2-(4-(10,11-Dihydro-5H-dibenzo[a,d][7]annulen-5-ylidene)piperidin-1-yl)-N-(4-fluorobenzyl)-4-hydroxypentanamide], the IC50 was 38 µM at mGAT3, 70.8 µM on mGAT1 [1] and 47.9 µM on mGAT4. At mGAT2, the “remaining [3H]GABA uptake mGAT2” value is listed as 100 μM: 59%. Also, the “remaining NO711 binding mGAT1” value at mGAT1 [2] is 100 μM: 86%.

`CC(O)CC(C(=O)NCc1ccccc1)N(C)CCON=C(c1ccccc1)c1ccccc1` (stereo not shown) [2RS,4RS-45, N-Benzyl-2-[(2-{[(diphenylmethylidene)amino]oxy}ethyl)(methyl)amino]-4-hydroxypentanamide]: the IC50 on mGAT3 is 20 µM; at mGAT2 it was 45.7 µM; on mGAT1 [1] it was 43.7 ± 0.801 µM; on mGAT4, 28.2 µM. On mGAT1 [2], the “remaining NO711 binding mGAT1” value is recorded as 100 μM: 100%.

As for `Cc1ccc(CNC(=O)C(CO)N(C)CCC=C2c3ccccc3CCc3ccccc32)cc1` (stereo not shown) [Compound 56e, 2-((3-(10,11-Dihydro-5H-dibenzo[a,d][7]annulen-5-ylidene)propyl)(methyl)amino)-3-hydroxy-N-(4-methylbenzyl)propanamide], the IC50 at mGAT3 was 20.4 µM; on mGAT2, 28.8 µM; at mGAT1 [1], 18.6 µM; on mGAT4 it was 11.2 µM.
